Measured values reported in patent US10526357B2, “Pharmaceutical compounds” (Rafael Pharmaceuticals, Inc., priority 2014, dated 2020).

Assays:
Format in all cases: cell-based
[1] = test system: SF539 human gliosarcoma cells; assay: CellTiter Glo (CTG) cell viability assay, in vitro cell killing, SF539; settings: 24 h treatment, 0.5% serum and 0.05% DMSO, relative to untreated control; for viability at 50 µM: SF-539, 50 μM, read-out: % avg live cells @ 50 μM (% Viable Cells Remaining); for viability at 100 µM: SF-539, 100 μM, read-out: % avg live cells @ 100 μM (% Viable Cells Remaining)
Text: (§1) The objective of this investigation was to assess the in vitro cell killing activities of analogs of lipoic acid in BXPC3 human pancreatic, H460 non small lung carcinoma, and SF539 human gliosarcoma cancer cells.
(§2) Three human tumor cell types, BXPC3 human pancreatic cancer, H460 non small lung carcinoma, and SF539 human gliosarcoma, were used in this investigation. The BXPC3 and H460 cells were originally obtained from American Type Cell Culture (ATCC). The SF539 cells were originally obtained from the NCI AIDS and Cancer Specimen Bank (ACSB). All tumor cells were maintained at 37° C. in a humidified 5% CO2 atmosphere in T75 tissue culture flasks containing 20 mL of Roswell Park Memorial Institute (RPMI) 1640 containing 2 mM L-glutamine, 10% FBS and 1% penicillin and streptomycin (100 IU/mL penicillin and 100 μg/mL streptomycin). The tumor cells were split at a ratio of 1:5 every 4-5 days by trypsinization and resuspended in fresh medium in a new flask. Cells were harvested for experiments at 70-90% confluency.
(§3) Stock solutions of each analog were prepared at a concentration of 200 and 100 mM in DMSO. Five μL of this solution was diluted in 10.0 mL of 0.5% serum containing RPMI media to give the desired 100 μM and 50 μM solutions in 0.05% DMSO.
(§4) The cancer cells were seeded at 4000 cells/well for H460 cells and 6000 cells/well for BXPC3 and SF 539 cells and incubated 24 hours. The killing activity of analogs was assayed at 50 μM and 100 μM concentrations. The tumor cells were treated for 24 hours with the test article, and after 24 hours of treatment the number of viable tumor cells was determined using the CTG assay.
(§5) The number of cells targeted for the study is 4×10^3 per well for H460 cells and 6×10^3 per well for BXPC3 and SF539 cells in 100 μL of medium. The actual number of cells were counted and seeded in the wells of a 96 well-plate. The cells were incubated for approximately 24 hours before addition of test article.
(§6) The media in the plate was removed by aspiration, and 100 μL of the test article at a final concentration of 50 μM or 100 μM was added to the cells. After exposure to the test articles for 24 hours, the number of viable cells in each well was determined and the percent of viable cells relative to control (in the absence of test article) were calculated. Additionally, a set of wells was treated with cell culture medium in the absence of cells to obtain a value for background luminescence. A separate set of cells was seeded at the same time in a clear 96-well plate and observed under the microscope at 24 hours, following addition of the test article to estimate the amount of cells present after treatment.
(§7) The number of viable cells was determined by using the CTG assay. Specifically, reagents were mixed and allowed to come to room temperature according to instructions from Promega, Inc. (Madison, Wis.). Cell plates were removed from the cell culture incubator and left on the bench for thirty minutes until they reached room temperature. 100 μL per well of CTG reagent was added with the 12-channel Eppendorf pipettor. The cells were lysed by shaking the plate for two minutes in a shaker. The cells were kept in room temperature for ten minutes to stabilize the luminescent signal. The luminescence was measured using the FLUOstar OPTIMA plate reader (BMG Labtech, Inc., Durham, N.C.).
(§8) Data from luminescence readings was copied onto EXCEL spreadsheets, and cell growth relative to untreated cells was calculated, using the following equation: […]

[2] = test system: H460 non small lung carcinoma cells; assay: CellTiter Glo (CTG) cell viability assay, in vitro cell killing, H460; settings: Homo sapiens, 24 h treatment, 0.5% serum and 0.05% DMSO, relative to untreated control; for viability at 50 µM: NCI-H460, 50 μM, read-out: % avg live cells @ 50 μM (% Viable Cells Remaining); for viability at 100 µM: NCI-H460, 100 μM, read-out: % avg live cells @ 100 μM (% Viable Cells Remaining)
Text: as §1, §2, §3, §4, §5, §6, §7, §8

[3] = test system: BXPC3 human pancreatic cancer cells; assay: CellTiter Glo (CTG) cell viability assay, in vitro cell killing, BXPC3; settings: 24 h treatment, 0.5% serum and 0.05% DMSO, relative to untreated control; for viability at 50 µM: BXPC-3, 50 μM, read-out: % avg live cells @ 50 μM (% Viable Cells Remaining); for viability at 100 µM: BXPC-3, 100 μM, read-out: % avg live cells @ 100 μM (% Viable Cells Remaining)
Text: as §1, §2, §3, §4, §5, §6, §7, §8

Row | Compound | viability at 50 µM [1] | viability at 100 µM [1] | viability at 50 µM [2] | viability at 100 µM [2] | viability at 50 µM [3] | viability at 100 µM [3]
1 | CCCCCCC(CCSCc1ccccc1)SCc1ccccc1 (stereo not drawn) [A] | 100% | 98% | 89% | 70% | 84% | 75%
2 | COCCCCCC(CCSCc1ccccc1)SCc1ccccc1 (stereo not drawn) [B] | 99% | 99% | 97% | 67% | 84% | 91%
3 | N#CCCCCC(CCSCc1ccccc1)SCc1ccccc1 (stereo not drawn) [C] | 74.9% | 23.2% | 69.8% | 27.1% | 70.9% | 36.1%
4 | c1ccc(CSCCC(CCCCc2nn[nH]n2)SCc2ccccc2)cc1 (stereo not drawn) [D] | 2.1% | 0.1% | 4.1% | 2.7% | 0.3% | 3.9%
5 | O=S(=O)(O)CCCCC(CCSCc1ccccc1)SCc1ccccc1 (stereo not drawn) [E] | 0% | 0% | 0% | 0.3% | 0% | 0%
6 | O=C(O)CCOCC(CCSCc1ccccc1)SCc1ccccc1 (stereo not drawn) [G] | 91.6% | 30.3% | 102% | 37.6% | 99.7% | 41.7%
